# Test results taken from EPA's ToxRefDB 2.
# What was measured:
# rat [1] = settings: Prenatal developmental toxicity study, sprague dawley, Oral, Gavage/Intubation, dose end: 15 GD
# rat [2] = settings: Chronic toxicity; wistar; Oral; Feed; dose end: 92 week; group: cholinesterase; cholinesterase / cholinesterase / cholinesterase / erythrocyte cholinesterase (che) + cholinesterase / cholinesterase / cholinesterase / …
# dog [3] = settings: Chronic toxicity, beagle, Oral, Feed, dose end: 52 week
# rat [4] = settings: Subchronic oral toxicity in rodents, wistar, [Not Specified], dose end: 6 month
# rat [5] = settings: Sub-acute repeat dose toxicity; sprague dawley; Oral; Gavage/Intubation; dose end: 4 week; group: systemic; systemic / hematology / blood clotting / blood clotting - activated partial thromboplastin time + systemic / hematology / blood clotting / …
# rat [6] = settings: Prenatal developmental toxicity study; sprague dawley; Oral; Gavage/Intubation; dose end: 17 GD; group: maternal; systemic / in life observation / body weight / body weight gain
# rat [7] = settings: Prenatal developmental toxicity study, sprague dawley, Oral, Gavage/Intubation, dose end: 17 GD
# dog [8] = settings: Sub-acute repeat dose toxicity; beagle; Oral; Gavage/Intubation; dose end: 4 week; group: systemic; systemic / hematology / blood clotting / blood clotting - prothrombin time + systemic / hematology / blood clotting / blood clotting - …
# rat [9] = settings: Chronic toxicity, sprague dawley, Oral, Gavage/Intubation, dose end: 6 month, group: systemic
# rabbit [10] = settings: Prenatal developmental toxicity study, new zealand white, Oral, Gavage/Intubation, dose end: 19 GD
# dog [11] = settings: Subchronic oral toxicity in nonrodent, beagle, Gavage/Intubation, dose end: 3 month, group: systemic, systemic / hematology / blood clotting / blood clotting - activated partial thromboplastin time + systemic / hematology / blood clotting / …
# rabbit [12] = settings: Prenatal developmental toxicity study, new zealand white, Oral, Gavage/Intubation, dose end: 19 GD; remark: listed apart in the source
# rat [13] = settings: Fertility (Segment I); sprague dawley; Oral; Gavage/Intubation; dose end: 7 GD; group: parental; systemic / in life observation / food consumption / food consumption + systemic / organ weight / uterus / nos
# rat [14] = settings: Other (NonGuideline or Guideline Not Listed); sprague dawley; Oral; Gavage/Intubation; dose end: 1 day; group: cannot be grouped; systemic / in life observation / clinical signs / salivation + systemic / in life observation / clinical signs / urogenital staining
# dog [15] = settings: Subchronic oral toxicity in nonrodent, beagle, Gavage/Intubation, dose end: 14 week, group: systemic
# mouse [16] = settings: Subchronic oral toxicity in rodents, other, Feed, dose end: 13 week, group: systemic, systemic / clinical chemistry / [other] / [other] + systemic / clinical chemistry / alderin epoxidase / alderin epoxidase + systemic / …
# mouse [17] = settings: Combined chronic toxicity/carcinogenicity; other; Oral; Feed; dose end: 104 week; group: systemic; systemic / pathology microscopic / blood / leukemia + systemic / pathology microscopic / blood / lymphoma nos + systemic / pathology …
# rat [18] = settings: Subchronic oral toxicity in rodents, wistar, Feed, dose end: 98 day, group: systemic
# rat [19] = settings: Subchronic dermal toxicity, sprague dawley, Topical, dose end: 21 day, group: systemic
# rabbit [20] = settings: Prenatal developmental toxicity study, new zealand white, Oral, Gavage/Intubation, dose end: 19 GD; remark: listed apart in the source
# rat [21] = settings: Subchronic oral toxicity in rodents, sprague dawley, Gavage/Intubation, dose end: 13 week, group: systemic, systemic / clinical chemistry / thyroxine (t4) / thyroxine (t4), total + systemic / organ weight / thyroid gland / absolute + systemic / …
# rabbit [22] = settings: Sub-acute repeat dose toxicity; Oral; Gavage/Intubation; dose end: 5 day; group: systemic; systemic / in life observation / food consumption / food consumption
# rabbit [23] = settings: Sub-acute repeat dose toxicity, Oral, Gavage/Intubation, dose end: 5 day, group: systemic
# [24] = group: developmental, developmental / developmental malformation / bone / short
# [25] = group: maternal, systemic / in life observation / body weight / body weight + systemic / in life observation / body weight / body weight gain + systemic / in…
# [26] = group: cholinesterase, cholinesterase / cholinesterase / cholinesterase / plasma cholinesterase (che)
# [27] = group: systemic, systemic / pathology microscopic / lymph node / hemorrhage
# [28] = group: systemic, systemic / pathology microscopic / lymph node / hemorrhage + systemic / pathology microscopic / lymph node / hyperplasia
# [29] = group: cholinesterase, cholinesterase / cholinesterase / cholinesterase / brain cholinesterase (che) + cholinesterase / cholinesterase / cholinesterase / …
# [30] = group: systemic, systemic / clinical chemistry / glucose / glucose + systemic / organ weight / liver / nos + systemic / organ weight / liver / relative to …
# [31] = group: systemic, systemic / organ weight / brain / nos + systemic / organ weight / kidney / nos
# [32] = group: developmental, developmental / developmental malformation / bone / supernumerary
# [33] = group: maternal, systemic / in life observation / body weight / body weight gain + systemic / in life observation / food consumption / food consumption
# [34] = systemic / hematology / blood clotting / blood clotting - activated partial thromboplastin time + systemic / hematology / blood clotting / …
# [35] = systemic / in life observation / body weight / body weight gain + systemic / organ weight / pituitary gland / relative to body weight + …
# [36] = group: developmental, developmental / developmental malformation / general / [other] + systemic / in life observation / body weight / fetal weight
# [37] = group: maternal, systemic / in life observation / body weight / body weight gain + systemic / in life observation / clinical signs / alopecia + systemic / in…
# [38] = group: developmental, systemic / in life observation / body weight / fetal weight
# [39] = group: maternal, systemic / in life observation / body weight / body weight gain + systemic / in life observation / food consumption / food consumption + …
# [40] = systemic / clinical chemistry / chloride / chloride + systemic / clinical chemistry / phosphorus / phosphorus + systemic / clinical …
# [41] = systemic / clinical chemistry / phosphorus / phosphorus + systemic / pathology microscopic / bone / [other]
# [42] = systemic / in life observation / body weight / body weight gain + systemic / in life observation / clinical signs / wetness + systemic / …
# [43] = systemic / clinical chemistry / triiodothyronine (t3) / triiodothyronine (t3), total
# [44] = group: developmental, developmental / developmental malformation / brain / hydrocephaly + developmental / developmental malformation / mouth / jaw / cleft palate…
# [45] = systemic / in life observation / body weight / body weight + systemic / in life observation / food consumption / food consumption
# [46] = systemic / in life observation / food consumption / food consumption
structure (smiles),measurement,setting,value
COP(=S)(OC)Oc1ccc([N+](=O)[O-])c(C)c1 [Fenitrothion],LEL,rat [1]; [24],25 mg/kg/day
same,LOAEL,rat [1]; [24],25 mg/kg/day
same,NEL,rat [1]; [24],8 mg/kg/day
same,NOAEL,rat [1]; [24],8 mg/kg/day
same,LEL,rat [1]; [25],25 mg/kg/day
same,LOAEL,rat [1]; [25],25 mg/kg/day
same,NEL,rat [1]; [25],8 mg/kg/day
same,NOAEL,rat [1]; [25],8 mg/kg/day
same,LEL,rat [2],0.27 mg/kg/day
same,LOAEL,rat [2],0.27 mg/kg/day
same,NEL,rat [2],0.128 mg/kg/day
same,NOAEL,rat [2],0.128 mg/kg/day
same,LEL,dog [3]; [26],0.25 mg/kg/day
same,LOAEL,dog [3]; [26],0.25 mg/kg/day
same,NEL,dog [3]; [26],0.125 mg/kg/day
same,NOAEL,dog [3]; [26],0.125 mg/kg/day
same,LEL,dog [3]; [27],0.25 mg/kg/day
same,LOAEL,dog [3]; [27],0.25 mg/kg/day
same,NEL,dog [3]; [28],0.125 mg/kg/day
same,NOAEL,dog [3]; [28],0.125 mg/kg/day
same,LEL,rat [4]; [29],2 mg/kg/day
same,LOAEL,rat [4]; [29],9.16 mg/kg/day
same,NEL,rat [4]; [29],0.64 mg/kg/day
same,NOAEL,rat [4]; [29],1.83 mg/kg/day
same,LOAEL,rat [4]; [30],2 mg/kg/day
same,NOAEL,rat [4]; [30],0.64 mg/kg/day
same,LEL,rat [4]; [31],0.59 mg/kg/day
same,NEL,rat [4]; [31],< 0.59 mg/kg/day
O=C([O-])c1ccc2c(c1)nc(C(=O)NC1CCN(C3CC3)CC1)n2Cc1cc(-c2ccc(Cl)s2)on1.[Na+] [AVE3247],LEL,rat [5],200 mg/kg/day
same,LOAEL,rat [5],> 2000 mg/kg/day
same,NEL,rat [5],< 200 mg/kg/day
same,NOAEL,rat [5],≥ 2000 mg/kg/day
same,LEL,rat [6],2000 mg/kg/day
same,LOAEL,rat [6],> 2000 mg/kg/day
same,NEL,rat [6],1000 mg/kg/day
same,NOAEL,rat [6],≥ 2000 mg/kg/day
same,LEL,rat [7]; [32],500 mg/kg/day
same,LOAEL,rat [7]; [32],500 mg/kg/day
same,NEL,rat [7]; [32],200 mg/kg/day
same,NOAEL,rat [7]; [32],200 mg/kg/day
same,LEL,rat [7]; [33],2000 mg/kg/day
same,LOAEL,rat [7]; [33],2000 mg/kg/day
same,NEL,rat [7]; [33],500 mg/kg/day
same,NOAEL,rat [7]; [33],500 mg/kg/day
same,LEL,dog [8],10 mg/kg/day
same,LOAEL,dog [8],> 100 mg/kg/day
same,NEL,dog [8],< 10 mg/kg/day
same,NOAEL,dog [8],≥ 100 mg/kg/day
same,LEL,rat [9]; [34],200 mg/kg/day
same,NEL,rat [9]; [34],< 200 mg/kg/day
same,LOAEL,rat [9]; [35],2000 mg/kg/day
same,NOAEL,rat [9]; [35],500 mg/kg/day
same,LEL,rabbit [10]; [36],2000 mg/kg/day
same,LOAEL,rabbit [10]; [36],> 2000 mg/kg/day
same,NEL,rabbit [10]; [36],1000 mg/kg/day
same,NOAEL,rabbit [10]; [36],≥ 2000 mg/kg/day
same,LEL,rabbit [10]; [37],500 mg/kg/day
same,LOAEL,rabbit [10]; [37],1000 mg/kg/day
same,NEL,rabbit [10]; [37],< 500 mg/kg/day
same,NOAEL,rabbit [10]; [37],500 mg/kg/day
same,LEL,dog [11],10 mg/kg/day
same,LOAEL,dog [11],> 80 mg/kg/day
same,NEL,dog [11],< 10 mg/kg/day
same,NOAEL,dog [11],≥ 80 mg/kg/day
same,LEL,rabbit [12]; [38],2000 mg/kg/day
same,LOAEL,rabbit [12]; [38],2000 mg/kg/day
same,NEL,rabbit [12]; [38],500 mg/kg/day
same,NOAEL,rabbit [12]; [38],500 mg/kg/day
same,LEL,rabbit [12]; [33],500 mg/kg/day
same,LOAEL,rabbit [12]; [33],500 mg/kg/day
same,NEL,rabbit [12]; [39],200 mg/kg/day
same,NOAEL,rabbit [12]; [39],200 mg/kg/day
same,LEL,rat [13],2000 mg/kg/day
same,LOAEL,rat [13],> 2000 mg/kg/day
same,NEL,rat [13],500 mg/kg/day
same,NOAEL,rat [13],≥ 2000 mg/kg/day
Cc1ncc([C@@H](CCCCCCc2ccc3c(n2)NCCC3)CC(=O)O)cn1,LEL,rat [14],2000 mg/kg/day
same,LOAEL,rat [14],> 2000 mg/kg/day
same,NEL,rat [14],< 2000 mg/kg/day
same,NOAEL,rat [14],≥ 2000 mg/kg/day
same,LOAEL,dog [15]; [40],> 45 mg/kg/day
same,NOAEL,dog [15]; [40],≥ 45 mg/kg/day
same,LEL,dog [15]; [41],5 mg/kg/day
same,NEL,dog [15]; [41],< 5 mg/kg/day
CC(=O)O[C@]1(C(C)=O)CC[C@H]2[C@@H]3C=C(Cl)C4=CC(=O)[C@@H]5C[C@@H]5[C@]4(C)[C@H]3CC[C@@]21C [Cyproterone acetate],LEL,mouse [16],125 mg/kg/day
same,LOAEL,mouse [16],> 125 mg/kg/day
same,NEL,mouse [16],< 125 mg/kg/day
same,NOAEL,mouse [16],≥ 125 mg/kg/day
same,LEL,mouse [17],120 mg/kg/day
same,LOAEL,mouse [17],> 120 mg/kg/day
same,NEL,mouse [17],< 120 mg/kg/day
same,NOAEL,mouse [17],≥ 120 mg/kg/day
"Oc1cc(Cl)c(Cl)cc1Cl [2,4,5-Trichlorophenol]",LOAEL,rat [18]; [42],> 1000 mg/kg/day
same,NEL,rat [18]; [42],100 mg/kg/day
same,NOAEL,rat [18]; [42],≥ 1000 mg/kg/day
same,LEL,rat [18]; systemic / in life observation / clinical signs / wetness + systemic / pathology microscopic / kidney / degeneration + systemic / pathology …,300 mg/kg/day
S=C([S-])NCCNC(=S)[S-].[Na+].[Na+] [Nabam-sodium],LEL,rat [19]; [43],15 mg/kg/day
same,NEL,rat [19]; [43],< 15 mg/kg/day
same,NOAEL,"rat [19]; systemic / clinical chemistry / triiodothyronine (t3) / triiodothyronine (t3), total + systemic / in life observation / clinical signs / …",15 mg/kg/day
same,LOAEL,rat [19]; systemic / in life observation / clinical signs / erythema,150 mg/kg/day
same,LEL,rabbit [20]; [44],2.62 mg/kg/day
same,LOAEL,rabbit [20]; [44],2.62 mg/kg/day
same,NEL,rabbit [20]; [44],0.328 mg/kg/day
same,NOAEL,rabbit [20]; [44],0.328 mg/kg/day
same,LEL,rabbit [20]; [39],32.8 mg/kg/day
same,LOAEL,rabbit [20]; [39],32.8 mg/kg/day
same,NEL,rabbit [20]; [39],2.62 mg/kg/day
same,NOAEL,rabbit [20]; [39],2.62 mg/kg/day
same,LEL,rat [21],80 mg/kg/day
same,LOAEL,rat [21],80 mg/kg/day
same,NEL,rat [21],0.8 mg/kg/day
same,NOAEL,rat [21],0.8 mg/kg/day
O=C(N[C@@H](Cc1ccccc1)[C@@H](O)C(=O)N1C[C@@H](O)[C@@H](O)C1)c1cc2cc(Cl)ccc2[nH]1 [Ingliforib],LEL,rabbit [22],250 mg/kg/day
same,LOAEL,rabbit [22],> 500 mg/kg/day
same,NEL,rabbit [22],< 250 mg/kg/day
same,NOAEL,rabbit [22],≥ 500 mg/kg/day
same,LOAEL,rabbit [23]; [45],> 500 mg/kg/day
same,NOAEL,rabbit [23]; [45],≥ 500 mg/kg/day
same,LEL,rabbit [23]; [46],50 mg/kg/day
same,NEL,rabbit [23]; [46],< 50 mg/kg/day
